Reference: patent US20210023065A1, “AMPHIPHILIC THIOL COMPOUNDS AND USES THEREOF” (THE REGENTS OF THE UNIVERSITY OF CALIFORNIA, priority 2018, published 2021)

Legend:
Assay type in all cases: cell-based
endogenous HRas = molecular target: T1, endogenous HRas (Homo sapiens, UniProt P01112); assay: Acyl resin-assisted capture detection of HRas palmitoylation in HeLa cells; conditions: for depalmitoylation of HRas: HeLa cells, 20 min, 1 at 1.25 μmol/10^7 cells, same experiments with TCEP alone or compound 2
T1 construct: endogenous in cells; host or cells: HeLa
Experimental: HeLa cells were grown to confluency in 10 cm plates. Stock solutions of compounds were prepared in DMSO as before and diluted to the final indicated concentration in 5.5 mL of OptiMEM media before adding to cells. Cells were incubated at 37° C. for 20 min and then media removed and 3 mL of HBSS added to each plate. Cells were detached using a cell scraper, pelleted by centrifugation at 1,000 rcf for 5 min and the pellet processed using a CAPTUREome S-Palmitoylated Protein Kit (Badrilla, UK) according to the manufacturer's protocol. Samples were resolved by electrophoresis using 4-20% SDS-polyacrylamide gels (Bio-Rad) under denaturing and reducing conditions. Proteins were then electrotransferred to a PVDF membrane (Bio-Rad). The membrane was blocked with 3% BSA and then subjected to immunoblot analysis using Anti-GTPase HRAS antibody (ab97488) (Abcam), Calnexin Antibody (2433S) (Cell Signaling Technology), Gα(i) Antibody (5290S) (Cell Signaling Technology), SNAP25 Antibody (5308S) (Cell Signaling Technology), Flotillin-2 Antibody (3436S) (Cell Signaling Technology), CD44 Antibody (3570S) (Cell Signaling Technology), Lyric/Metadherin Antibody (14065S) (Cell Signaling Technology), Flotillin-1 Antibody (3253S) (Cell Signaling Technology) and secondary goat anti-rabbit IgG-HRP (sc-2030) (Santa Cruz Biotechnology) or goat anti-mouse IgG HRP (ThermoFisher). Chemiluminescent detection was performed by using SuperSignal West Pico PLUS chemiluminescent substrate (ThermoFisher) according to the manufacturer's instructions.
(§1) Assays were performed in 3 biological replicates. Each replicate involved the analysis of 4 to 5 conditions side-by-side. Western blots were analyzed using ImageJ^1. The intensity of the protein band in each cleaved bound fraction (palmitoylated protein fraction) was normalized to the intensity of the corresponding input fraction (total protein fraction). The values within individual S 4 replicates were normalized to the control or vehicle condition and reported as means±SD. An unpaired t test was performed to determine the significance between means.

GAP43 = molecular target: T2, GAP43 (Homo sapiens, UniProt P17677); assay: Acyl resin-assisted capture detection of GAP43 palmitoylation in INCL lymphoblasts; conditions: 0.05 μmol/10^7 cells, 24 h
T2 construct: Western blot detection of endogenous GAP43 in acyl resin-assisted capture fractions; host or cells: INCL human lymphoblasts
T2 sequence (P17677 1-238): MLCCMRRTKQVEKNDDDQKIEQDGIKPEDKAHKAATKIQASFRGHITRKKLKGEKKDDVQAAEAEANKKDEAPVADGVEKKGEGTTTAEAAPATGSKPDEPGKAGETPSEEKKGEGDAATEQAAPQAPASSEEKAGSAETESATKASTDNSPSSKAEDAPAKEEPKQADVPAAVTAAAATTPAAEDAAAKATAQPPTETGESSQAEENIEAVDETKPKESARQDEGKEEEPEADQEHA
Experimental: INCL Lymphoblasts were adjusted to 1,000,000 cells/mL in 20 mL of OptiMem Media. Stock solutions of compounds were prepared in DMSO as before and diluted to the indicated final concentration in the cell suspension. […] Cells were pelleted by centrifugation at 1,000 rcf for 5 min and the pellet processed using a CAPTUREome S-Palmitoylated Protein Kit (Badrilla, UK) according to the manufacturer's protocol. Samples were resolved by electrophoresis using 4-20% SDS-polyacrylamide gels (Bio-Rad) under denaturing and reducing conditions. Proteins were then electrotransferred to a PVDF membrane (Bio-Rad). The membrane was blocked with 3% BSA and then subjected to immunoblot analysis using GAP-43 (B-5) Antibody (sc-17790) (Santa Cruz Biotechnology) and secondary antibody goat anti-mouse IgG HRP (ThermoFisher). Chemiluminescent detection was performed by using SuperSignal West Pico PLUS chemiluminescent substrate (ThermoFisher) according to the manufacturer's instructions.
as §1

EGFP-HRas = molecular target: T3, EGFP-HRas (Homo sapiens, UniProt P01112); assay: Live-cell imaging of EGFP-HRas localization in HeLa cells; conditions: HeLa cells, 1.25 μmol/10^7 cells, 20 min
T3 construct: host or cells: HeLa
Experimental: Imaging was performed on an Axio Observer Z1 inverted microscope (Carl Zeiss Microscopy Gmb, Germany) with Yokogawa CSU-X1 spinning disk confocal unit using a 63×, 1.4 NA oil immersion or 20×, 0.8 NA objective to an ORCA-Flash4.0 V2 Digital CMOS camera (Hamamatsu, Japan). For live cell imaging, an incubation chamber with temperature and CO2 controllers (World Precision Instruments) was utilized. Fluorophores were excited with s diode laser (488 nm; 30 mW). Images were acquired using Zen Blue software (Carl Zeiss) and processed using Image J.^1
HeLa cells were plated at 40,000 cells/well in an 8-well Lab-Tek chamber slide (ThermoFisher) and allowed to adhere overnight. Cells were transfected with mEGFP-HRas or mEGFP-KRas4b using Lipofectamine 2000 (ThermoFisher) according to the manufacturer's protocol. 50 mM stocks of compounds 1 and 2 were prepared by dissolving the solid compound in DMSO containing 100 mM tris(2-S 3 carboxyethyl)phosphine hydrochloride (TCEP) as a preservative. From these stocks, a solution of 200 μM [1 or 2] (with 400 μM TCEP), or 400 μM TCEP was prepared in OptiMEM media. Before imaging, cells were exchanged into OptiMEM media. The diluted solutions were added to the indicated final concentration within individual wells of the chamber slide and cells imaged while maintaining 37° C., 5% CO2 in the incubation chamber. Images were acquired in 6 different locations across a minimum of 2 independent experiments. […] An unpaired t test was performed to determine the significance of the means before and after treatment.

T1 sequence (P01112 whole entry): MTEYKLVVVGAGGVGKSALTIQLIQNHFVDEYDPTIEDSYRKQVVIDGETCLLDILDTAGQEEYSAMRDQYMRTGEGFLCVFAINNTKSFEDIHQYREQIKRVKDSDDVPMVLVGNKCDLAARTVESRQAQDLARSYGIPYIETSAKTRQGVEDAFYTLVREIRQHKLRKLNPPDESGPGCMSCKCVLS
T3 sequence (P01112 1-186 limits assumed): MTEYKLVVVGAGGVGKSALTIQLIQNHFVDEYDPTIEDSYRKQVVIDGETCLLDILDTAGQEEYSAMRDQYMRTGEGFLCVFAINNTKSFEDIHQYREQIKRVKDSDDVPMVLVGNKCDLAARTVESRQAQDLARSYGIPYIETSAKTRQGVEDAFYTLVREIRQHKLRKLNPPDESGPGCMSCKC

Row | SMILES | depalmitoylation of HRas (endogenous HRas) | level of GAP43 palmitoylation (GAP43) | EGFP-HRas localization at the plasma membrane (fluorescence) (EGFP-HRas) | depalmitoylation of HRas by PB alone (endogenous HRas; HeLa cells treated with PB, without 1)
1 | CCCCCCCCNC(=O)[C@@H](N)CO [compound 2, H2N-L-Ser-Oct, reference compound] | no significant depalmitoylation | did not result in a significant change | no change in fluorescence localization | –
2 | CCCCCCCCCC[C@@H]1C(=O)O[C@H]1CCc1ccc(OC)c(OC)c1 [PB, palmostatin B, reference compound] | – | – | – | no significant depalmitoylation
3 | Cl.O=C(O)CCP(CCC(=O)O)CCC(=O)O [TCEP, tris(2-carboxyethyl)phosphine hydrochloride, reference compound] | no significant depalmitoylation | did not result in a significant change | no change in fluorescence localization | –
